Results on 16 molecules are retold here after patent publication US5852014A, “Condensed indole derivatives as 5HT4 -receptor antagonists” (SmithKline Beecham p.l.c., priority 1992, dated 1998).

Test [1] addresses piglet hippocampal 5-HT4 receptors (Sus scrofa, UniProt Q6Q253). As to the kind of experiment: Binding to piglet hippocampal 5-HT4 receptors (125I-SB-207710). Conditions: for pKi: inhibition of 125I-SB-207710 binding in hippocampus.
The subject of test [2] is large bowel motility and fluid secretion. The test is described as follows: Faecal pellet output and fluid content in conscious fed mice (normal and 5-HTP-treated). The class given is in vivo, mouse. The text has this:
2) Antagonism in Conscious Fed Mice
A model was developed to examine the effect of 5-HT4 receptor antagonists on large bowel motility (faecal pellet output, FPO) and fluid secretion (pellet wet/dry weight) during `fed` conditions. The antagonists are studied in normal mice (to determine adverse effects, eg constipation)and in mice with functional diarrhoea caused by 5-HTP [Banner S E, Smith M I, Bywater D and Sanger G J (1993), Br J Pharmacol, 110, 17 P, and Banner S E, Smith M I and Sanger G J (1993) Br J Pharmacol; 110, 135 P]. Faecal pellets were collected at 10 min intervals so that their number and wet/dry weights could be determined.

The next test concerns the target 5-HT4 receptor (Cavia porcellus, UniProt O70528). As to the kind of experiment: Guinea pig colon: 5-HT-evoked contraction of longitudinal muscle-myenteric plexus preparations. The procedure:
In some experiments, this tissue was dosed alternately with an approximately equi-effective concentration of the nicotine receptor stimulant, dimethylphenylpiperazinium (DMPP).

Sequence of 5-HT4 receptor (O70528 whole entry): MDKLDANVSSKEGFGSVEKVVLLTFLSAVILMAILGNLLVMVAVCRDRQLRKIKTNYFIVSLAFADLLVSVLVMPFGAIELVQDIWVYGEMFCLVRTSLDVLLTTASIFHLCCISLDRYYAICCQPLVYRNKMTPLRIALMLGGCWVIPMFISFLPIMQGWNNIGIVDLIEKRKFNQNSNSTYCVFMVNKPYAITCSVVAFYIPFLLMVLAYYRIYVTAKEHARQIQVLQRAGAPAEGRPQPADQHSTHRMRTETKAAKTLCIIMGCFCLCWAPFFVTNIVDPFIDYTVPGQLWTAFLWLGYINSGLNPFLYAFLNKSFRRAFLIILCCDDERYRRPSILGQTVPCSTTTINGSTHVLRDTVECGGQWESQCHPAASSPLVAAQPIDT
Sequence of piglet hippocampal 5-HT4 receptors (Q6Q253 1-402): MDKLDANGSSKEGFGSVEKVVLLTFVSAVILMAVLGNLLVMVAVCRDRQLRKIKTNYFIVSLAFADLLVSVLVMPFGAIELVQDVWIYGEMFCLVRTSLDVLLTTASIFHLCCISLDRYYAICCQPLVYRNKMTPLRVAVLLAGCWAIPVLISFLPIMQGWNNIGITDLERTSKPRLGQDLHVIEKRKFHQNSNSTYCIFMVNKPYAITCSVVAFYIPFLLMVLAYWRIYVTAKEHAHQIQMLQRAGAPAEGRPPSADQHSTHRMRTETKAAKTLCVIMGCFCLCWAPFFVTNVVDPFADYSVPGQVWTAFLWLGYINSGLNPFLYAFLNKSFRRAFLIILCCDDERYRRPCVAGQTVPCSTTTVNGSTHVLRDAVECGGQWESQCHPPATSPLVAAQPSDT

The pKi is the Ki on a negative log10 scale, so that one unit is a factor of ten. Read a low pKi as a high Ki. Regarding `NCCc1c[nH]c2ccc(O)cc12` [5-HT, 5-hydroxytryptamine], in test [1], the negative logarithm of the Ki (pKi) is 6.6±0.1.
For `NC(Cc1c[nH]c2ccc(O)cc12)C(=O)O` (stereo not drawn) [5-HTP, reference compound], in test [2] (10 mgkg^-1 s.c.), the “effect of 5-HTP on FPO” value is on record as “increased FPO above control levels” and the “time of maximum effect of 5-HTP” value was found to be 20 min. For the same molecule, the “effect of 5-HTP on faecal output” value in test [2] (higher doses than 10 mg kg^-1 s.c.) was “evoked watery diarrhoea and unformed faecal output”.
As to `CCCCN1CCC(COC(=O)c2c3n(c4ccccc24)CCCO3)CC1` [E1, (1-^n Butyl-4-piperidyl)methyl-3,4-dihydro-2 H-[1,3]oxazino[3,2-a]indole-10-Carboxylate], on 5-HT4 receptor (Y is O), the “5-HT4 receptor antagonist activity (in words)” value was “particularly good activity”.
On the same count and under the same terms, to `O=C(OCC1CCN2CCCCC2C1)c1c2n(c3ccccc13)CCCO2` (stereo not drawn) [E2, eq-Quinolizidin-2-ylmethyl-3,4-dihydro-2 H-[1,3]oxazino[3,2-a]indole-10-Carboxylate] belongs “particularly good activity”.
For `CCCCN1CCC(CNC(=O)c2c3n(c4ccccc24)CCCO3)CC1` [E3, N-[(1-^n Butyl-4-piperidyl)methyl]-3,4-dihydro-2 H-[1,3]oxazino[3,2-a]indole-10-Carboxamide], the “5-HT4 receptor antagonist activity (in words)” value at 5-HT4 receptor (Y is NH) is “particularly good activity”.
With `O=C(OCCN1CCCCC1)c1c2n(c3ccccc13)CCCO2` [E4, 2-(1-Piperidyl)ethyl 3,4-dihydro-2 H-[1,3]oxazino[3,2-a]indole-10-Carboxylate], at 5-HT4 receptor (Y is O), the “5-HT4 receptor antagonist activity (in words)” value is reported as “particularly good activity”.
On the same count and under the same terms, with `CCCCN1CCC(COC(=O)c2c3n(c4ccccc24)CCO3)CC1` [E6, (1-^n Butyl-4-piperidyl)methyl-2,3-dihydrooxazolo[3,2-a]indole-9-Carboxylate] the entry was “particularly good activity”; with `CCCCN1CCC(COC(=O)c2c3n(c4ccccc24)CCCS3)CC1` [E8, (1-^n Butyl-4-piperidyl)methyl-3,4-dihydro-2 H-[1,3]thiazino[3,2-a]indole-10-Carboxylate], “particularly good activity”.
Still for that read-out and setting: with `O=C(OCC1CCN(Cc2ccccc2)CC1)c1c2n(c3ccccc13)CCCO2` [E15, (1-Benzyl-4-piperidyl)methyl-3,4-dihydro-2 H-[1,3]oxazino[3,2-a]indole-10-Carboxylate] the entry was “particularly good activity”.
Take `O=C(NCC1CCN(Cc2ccccc2)CC1)c1c2n(c3ccccc13)CCCO2` [E20, N-[(1-Benzyl-4-piperidyl)methy] 3,4-dihydro-2 H-[1,3]oxazino[3,2-a]indole-10-Carboxamide]: on 5-HT4 receptor (Y is NH), the “5-HT4 receptor antagonist activity (in words)” value is “particularly good activity”.
Still for that read-out and setting: to `O=C(NCC1CCN(CC2CCCCC2)CC1)c1c2n(c3ccccc13)CCCO2` [E23, N-[(1-Cyclohexylmethyl-4-piperidyl)methyl] 3,4-dihydro-2 H-[1,3]oxazino[3,2-a]indole-10-Carboxamide] belongs “particularly good activity”.
Regarding `CCCCN1CCC(COC(=O)c2c3n(c4ccc(F)cc24)CCCO3)CC1` [E27, (1-^n Butyl-4-piperidyl)methyl 8-fluoro-3,4-dihydro-2 H-[1,3]oxazino[3,2-a]indole-10-Carboxylate], the “5-HT4 receptor antagonist activity (in words)” value at 5-HT4 receptor (Y is O) is listed as “particularly good activity”.
As to `CCCCN1CCC(CNC(=O)c2c3n(c4ccc(F)cc24)CCCO3)CC1` [E28, N-[(1-^n Butyl-4-piperidyl)methyl] 8-fluoro-3,4-dihydro-2 H-[1,3]oxazino[3,2-a]indole-10-Carboxamide], on 5-HT4 receptor (Y is NH), the “5-HT4 receptor antagonist activity (in words)” value is listed as “particularly good activity”.
Same read-out and setting: with `O=C(NCC1CCN(CCCOc2ccccc2)CC1)c1c2n(c3ccccc13)CCCO2` [E47, N-[(1-(3-Phenoxypropyl)-4-piperidinyl)methyl] 3,4-dihydro-2 H-[1,3]oxazino[3,2-a]indole-10-Carboxamide] the entry was “particularly good activity”.
For `CCCCN1CCC(COC(=O)c2cc(I)c(N)c3c2OCCO3)CC1` [SB-207710], in test [1] (piglet hippocampal membranes, n=4), the Bmax worked out at 16±3 fmol/mg protein.
With `CN1C2CCCC1CC(NC(=O)c1nn(C)c3ccccc13)C2` (stereo not drawn) [granisetron], in test [1], the negative-log Ki (pKi) result is on record as “below 5”.
